Columns and labels:
Format in all cases: physicochemical
[1] = Dissolution (drug release) in 0.05 M phosphate buffer pH 6.8
[2] = Pharmaceutical loading (relative percentage of diclofenac by mass)
Excerpt: It has been appreciated that the pharmaceutical loading in the TCPs may be less than that of a commercially available pharmaceutical sodium salt due to the mass of the organic linkers. Provided below is Table I showing a summary for the relative percentages in some of specific diclofenac TCPs. For example, the percent of diclofenac in sodium diclofenac is 93%, whereas the TCPs had loading ranging from 42-70%. The percentage of metal within the TCPs by mass ranged from 2.6-7.9% and the percent of linker by mass ranged from 22-41%. The TCP with EtOH in the name were synthesized in EtOH, all others were synthesized in MeOH. However, it is not strictly required that TCPs be prepared in MeOH and TCPs may be prepared in EtOH instead, or other solvents such as but not limited to: water, acetonitrile, dimethyl sulfoxide, nitromethane, isopropyl alcohol, dimethylformamide or a mixture thereof.

[3] = Intrinsic dissolution rate (IDR) in 0.05M phosphate buffer pH 6.8

diclofenac released ([1]; after 1 h) [%]	percent of diclofenac (loading) [2] [%]	intrinsic dissolution rate (IDR) [3] [μg cm^−2 min^−1]	ibuprofen released ([1]; after 5 min) [%]	Compound
100	93	1161±0.216		O=C(O)Cc1ccccc1Nc1c(Cl)cccc1Cl [sodium diclofenac]
			100	CC(C)Cc1ccc(C(C)C(=O)O)cc1.[Na] (stereo not shown) [sodium ibuprofen]

From patent US20240342291A1, “Therapeutic Coordination Polymers Containing Pharmaceuticals for Drug Release Applications” (UNIVERSITY OF WINDSOR, priority 2021, published 2024)
